The values that follow come from US6770740B1, “Crosslinked DNA condesate compositions and gene delivery methods” (The Regents of the University of Michigan, priority 1999, dated 2004).

Data set [1] concerns HepG2 cells. Nature of the data set: In vitro luciferase gene expression, Example 1. The data set is classed as cell-based. The conditions noted are these: HepG2, 24 h post-transfection, 10 μg DNA, 80 μM chloroquine. The protocol: HepG2 cells were plated at 1.5×10^5 cells per 35 mm well and grown to 40-70% confluence in MEM supplemented with 10% fetal calf serum (FCS). Peptide DNA condensates (10 μg of DNA) were added dropwise to triplicate sets of cells in 2% FCS containing 80 μM chloroquine. After 5 h incubation at 37° C., the media was replaced with MEM supplemented with 10% FCS, and luciferase expression was determined at 24 h. Cells were washed twice with ice-cold phosphate buffered saline (calcium and magnesium free) and then treated with 0.5 ml of ice-cold lysis buffer (25 mM Tris hydrochloride pH 7.8, 1 mM EDTA, 8 mM magnesium chloride, 1% Triton X-100, 1 mM DTT) for 10 min. The cell lysate was scraped, transferred to 1.5 ml micro centrifuge tubes, and centrifuged for 7 min at 13,000 g at 4° C. to pellet debris.
Lysis buffer (300 μl), sodium-ATP (4 μl of a 180 mM solution, pH 7, 4° C.) and cell lysate (100 μl, 4° C.) were combined in a test tube, briefly mixed and immediately placed in the luminometer. Luciferase relative light units (RLU) were recorded on a Lumat™ LB 9501 (Berthold Systems, Germany) with 10 sec integration after automatic injection of 100 μl of 0.5 mM D-luciferin (prepared fresh in lysis buffer without DTT). […]

The subject of data set [2] is plasmid DNA. Nature of the data set: Fluorescent dye (thiazole orange) displacement assay of peptide binding to DNA, Example 1. The conditions noted are these: corresponding to a charge ratio of 1.8:1. The protocol: Peptide DNA condensates were formed by adding 75 μg of DNA (pCMVL in 750 μl of 5 mM Hepes pH 7.4) to varying amounts of peptide (7.5 to 90 nmol in 750 μl of Hepes) while vortexing, followed by equilibration at RT for 1 h. Peptide binding to DNA was monitored by a fluorescent dye displacement assay (Wadhwa et al. 1997). A 1 μg aliquot of the peptide DNA condensate was diluted to 1 ml in Hepes containing 0.1 μM thiazole orange. The fluorescence of the intercalated dye was measured on an LS50B fluorimeter (Perkin Elmer, UK) in a microcuvette by exciting at 500 nm while monitoring emission at 530 nm.

In data set [3] the test system is HepG2 cells. The experiment in a line: Cell binding of 125I-DNA condensates, Example 1. Conditions: 5 h transfection, 10 μg 125I-DNA condensates. The data set is classed as cell-based. The procedure:
Iodinated plasmid DNA was prepared with specific activity of 300 nCi per μg of DNA as described previously (Teribesi et al., 1998). Prior to forming DNA condensates, the specific activity of the ^125I DNA was adjusted to 4.5 nCi per μg of DNA by combining with unlabeled plasmid. DNA condensates were prepared using AlkCWK18, PEG-SS-CWK18 or PEG-VS-CWK18 as described above. Peptide ^125I-DNA condensates (10 μg) were used to transfer HepG2 cells for 5 h according to the procedure described above. The radioactive media was removed, cells were washed with phosphate buffered saline, harvested with lysis buffer, and the cell-associated radioactivity was quantified by gamma counting.

Data set [4] in a line: QELS particle size and zeta potential of PEG-peptide DNA condensates and co-condensates, Example 1. The data set is classed as physicochemical. The protocol: The particle size of peptide DNA condensates were analyzed at a DNA concentration of 50 μg/ml in Hepes by quasielastic light scattering (QELS). The particle surface change was determined by zeta potential analysis using a Brookhaven ZetaPlus™ (Brookhaven Instruments).
DNA co-condensates were prepared by add-mixing AlkCWK18 and PEG-VS-CWK18 in ratios ranging from 0 to 100 mol %, and condensing DNA at a charge ratio of 2.3:1 as described above. To establish the mol ratio of peptides bound to DNA, condensates were dialyzed in a fixed volume (0.5 ml) dialyzer for 75 h against water using a 100,000 MWCO membrane. Peptide DNA condensates in the retentate (0.5 ml) were dissociated by adding 50 μl of 5 M sodium chloride in 0.1% TFA. AlkCWK18 and PEG-VS-CWK18 were quantified by injecting 1 nmol of peptide (100 μl) onto analytical RP-HPLC eluted with 0.1% TFA and a gradient of acetonitrile (5 to 65% over 30 min) while detecting tryptophan by fluorescence (λex 280 nm, λem 350 nm). The peak integration areas were used to quantify AlkCWK18 and PEG-VS-CWK18 with reference to standard curves developed for each peptide.

The nature of data set [5]: Solubility of peptide DNA condensates: particle size as a function of DNA concentration. The data set is classed as physicochemical. Conditions: throughout DNA concentrations 0.05-2 mg/ml.
A short description of data set [6]: Particle size and zeta potential of peptide DNA condensates after freeze-drying and rehydration, Example 2. The data set is classed as physicochemical. The conditions noted are these: no sucrose. The procedure:
The concentration of AlkCWK18 and PEG-CWK18 were determined by UV absorbance (Trp, ε280 nm=5,600 M^−1 cm^−1). Peptide DNA condensates were prepared in 5 mM Hepes pH 5 at a peptide/DNA stoichiometry of 0.3 nmol of peptide/μg of DNA. The condensates were formed by adding 450 μL of 100 μg/mL NT-βGal drop wise to 450 μL of 30 nmol/mL AlKCWK18 or PEG-CWK18 while vortexing. Each sample was prepared in triplicate, and after a 30 min equilibration, 20-100 μL of 50 wt/vol % solutions of either glucose, mannitol, galactose, dextran or sucrose were added followed by normalization to 1 mL to give a final sugar concentration of 1-5 wt/vol % and DNA concentration of 50 μg/mL.
The mean particle size of 50 μg/mL AlkCWK18 DNA condensates were determined by quasielastic light scattering (QELS) on a Brookhaven ZetaPlus™. Samples (1 mL) were frozen rapidly in dry ice ethanol in a 1.5 mL microcentrifuge tube and then lyophilized on a Labconco™ freeze dryer for 24 h operated at a constant vacuum of 55×10^−6 mBar while maintained at room temperature (22° C.). The maximal vacuum was achieved within 2 min after applying the sample.
At the highest sucrose concentration of 5 wt/vol %, samples remained frozen throughout freeze-drying but dried to form a glassy solid after 24 h. […] Freeze-dried samples prepared in triplicate were reconstituted in 1 mL of deionized water, allowed to equilibrate for 30 min and then analyzed by QELS as described above. Large peptide DNA condensates were measured by light microscopy with magnification of 100X. The particle size of PEG-peptide DNA condensates were also measured by transmission electron microscopy (TEM) according to a published procedure (Wadhwa et al., 1997).
The relationship between pH and rehydrated peptide DNA condensate particle size was examined in 5 mM Hepes at a pH range of 3-7. The particle size of 50 μg/mL DNA condensates in 5 wt/vol % sucrose was determined by QELS before and after freeze-drying as described above.
The rehydrated particle size of AlkCWK18 or PEG-CWK18 DNA condensates were also examined at a concentration of 0.05-5 mg/mL in 5 mM Hepes pH 5 with (AlkCWK18 DNA) or without (PEG-CWK18 DNA) the addition of 5 wt/vol % sucrose. DNA condensates were freeze-dried and reconstituted to the original concentration. QELS particle size analysis before and after freeze-drying required dilution of an aliquot of the sample to concentration of 50 μg/mL. Freeze-dried 5 mg/mL PEG-CWK18 DNA condensates were also reconstituted in 0.9 wt/vol % sodium chloride and analyzed for particle size.

Data set [7] deals with HepG2 cells. Nature of the data set: Cytotoxicity in cell culture: total protein of cell homogenates 24 h after transfection. The data set is classed as cell-based. Conditions: 1-4 mol equivalents of glutaraldehyde corresponding to 1.5-6 μM. The protocol:
HepG2 cells (3×10^5) were plated on 6×35 mm wells and grown for 48 h to 40% confluence in MEM supplemented with 10% fetal calf serum (FCS). Crosslinked DNA condensates (10 μg of DNA in 200 μL) were transfected in triplicate by drop wise addition to cells in 2% FCS either with or without 80 μM chloroquine followed by 5 h incubation, after which the media was replaced with 2 mL of MEM containing 10% fetal calf serum and allowed to incubate for an additional 19 h. Wells were sampled for 10 days at 24 h intervals by removing and freezing (−20° C.) the media and replacing it with 2 mL of fresh 10% FCS MEM.
The cytotoxity of both free glutaraldehyde and crosslinked DNA condensates were examined in cell culture. The total protein of cell homogenates harvested 24 h after transfecting cells in the presence of free glutaraldehyde or crosslinked DNA condensates were indistinguishable from control, indicated no toxicity when using 1-4 mol equivalents of glutaraldehyde corresponding to 1.5-6 μM.

Data set [8] in a line: Serum stability of DNA condensates in DNase I augmented mouse serum. The data set is classed as in vitro ADME. The conditions noted are these: 50% serum containing 0.12 units of DNase I, 37° C. The procedure:
DNA condensates (100 μL) were combined with 100 μL of DNase I augmented mouse serum (0.12 U of DNase I per 100 μl serum) and 3 μL of 5 M sodium chloride to bring the final salt concentration to 150 mM. Samples were incubated at 37° C. for 3 h while rapidly freezing 20 μL aliquots at time points ranging from 0 to 180 min. Serum samples were processed by adding 3 μL (0.31 U) of proteinase K and then incubated at 37° C. for 30 min to remove endonuclease activity. Sodium chloride was then added (4.6 μL of 5 M) along with trypsin (3 μL containing 7 U) and allowed to digest for 12 h at 37° C. to remove the crosslinked peptide. Samples were applied to a 1% agarose gel containing 0.05% SDS and electrophoresed as described above.

Where a SMILES comes first, the peptide text is derived from it. Where no end group is shown, it is not given here. Side-chain parts run from the residue outwards. vinylsulfone = vinylsulfone linkage of the PEG to the cysteine sulfhydryl (non-reducible, from PEG-vinylsulfone)

“PEG-VS-CWK18: non-reducible PEG-peptide from PEG-vinylsulfone (5 kDa) and the sulfhydryl of CWK18 (C([vinylsulfone-PEG 5 kDa])WKKKKKKKKKKKKKKKKKK)”: the “reduction of spontaneous gene transfer (luciferase expression) relative to AlkCWK18 DNA condensates” value in data set [1] amounted to 1000 fold. Moreover, the “peptide:DNA stoichiometry at the asymptote of the dye displacement titration curve (relative DNA binding affinity)” value in data set [2] is given as 0.3 nmol per μg of DNA. Also, the “cell associated 125I-DNA, percent of dose” value in data set [3] amounted to 0.2%. In addition, the “zeta potential of DNA condensates” value in data set [4] (charge ratio 1.8:1) is given as “+10 mV”. The “mean diameter of DNA condensates” value in data set [4] (charge ratio of 1.8:1 or higher, 50 μg/ml DNA in Hepes) is 90 nm; in data set [5], < 100 nm. For the same compound, in data set [6] (5 mg/mL DNA), the “particle diameter of freeze-dried and rehydrated DNA condensates by TEM” value is recorded as “less than 100 nm”. Further, the “DNA concentration up to which particle size was retained on rehydration” value in data set [6] (rehydrated in water or normal saline) is recorded as 5 mg/mL.
On to `O=CCCCC=O` [glutaraldehyde], for which, in data set [7], the cytotoxicity entry is “no toxicity”.
`NCCCC[C@H](NC(=O)[C@H](CCCCN)NC(=O)[C@H](CCCCN)NC(=O)[C@H](CCCCN)NC(=O)[C@H](CCCCN)NC(=O)[C@H](CCCCN)NC(=O)[C@H](CCCCN)NC(=O)[C@H](CCCCN)NC(=O)[C@H](CCCCN)NC(=O)[C@H](CCCCN)NC(=O)[C@H](CCCCN)NC(=O)[C@H](CCCCN)NC(=O)[C@H](CCCCN)NC(=O)[C@H](CCCCN)NC(=O)[C@H](CCCCN)NC(=O)[C@H](CCCCN)NC(=O)[C@H](CCCCN)NC(=O)[C@H](CCCCN)NC(=O)[C@H](Cc1c[nH]c2ccccc12)NC(=O)[C@@H](N)CS)C(=O)O` [CWK18, Cys-Trp-Lys18] (H-CWKKKKKKKKKKKKKKKKKK-OH; N-terminus and C-terminus assumed): the “time of stability of DNA before metabolism into oligonucleotides” value in data set [8] came to 60 min.
